Assay results from ChEMBL document CHEMBL4428058, “Hit-to-Lead Studies for the Antimalarial Tetrahydroisoquinolone Carboxanilides” (J Med Chem, 2016).
Each block holds one compound with its values, some of them ahead of it.

Columns and labels:
Format in all cases: ADME, Microsome
[1] = Drug metabolism in CD-1 mouse liver microsomes assessed as (3S,4S)-N-(3-chloro-4-hydroxyphenyl)-2-isobutyl-1-oxo-3-(thiophen-2-yl)-1,2,3,4-tetrahydroisoquinoline-4-carboxamide formation
[2] = Drug metabolism in CD-1 mouse liver microsomes assessed as oxidation at N-2 isobutyl group
[3] = Half life in CD-1 mouse liver microsomes in presence of NADPH by UPLC-MS analysis; settings: for t1/2: mouse, microsomes
[4] = Drug metabolism in CD-1 mouse liver microsomes assessed as ((3S,4S)-N-(3-hydroxyphenyl)-2-isobutyl-1-oxo-3-(thiophen-2-yl)-1,2,3,4-tetrahydroisoquinoline-4-carboxamide formation
[5] = Drug level in CD-1 mouse liver microsomes treated with (3S,4S)-N-(3-cyanophenyl)-2-isobutyl-1-oxo-3-(thiophen-2-yl)-1,2,3,4-tetrahydroisoquinoline-4-carboxamide
[6] = Drug level in CD-1 mouse liver microsomes treated with (3S,4S)-N-(3-chloro-4-methoxyphenyl)-2-isobutyl-1-oxo-3-(thiophen-2-yl)-1,2,3,4-tetrahydroisoquinoline-4-carboxamide

Drug metabolism [1]: Metabolite_Detected
Drug metabolism [2]: Metabolite_Detected
half-life ([3]; CD-1, mouse, liver microsomes): < 30 min
SMILES: COc1ccc(NC(=O)[C@H]2c3ccccc3C(=O)N(CC(C)C)[C@@H]2c2cccs2)cc1Cl (racemic)

Drug metabolism [4]: Metabolite_Detected
Drug metabolism [2]: Metabolite_Detected
t1/2 [3]: 16.8 min
SMILES: CC(C)CN1C(=O)c2ccccc2[C@H](C(=O)Nc2cccc(C#N)c2)[C@H]1c1cccs1 (racemic)

t1/2 [3]: 19.8 min
SMILES: CC(C)CN1C(=O)c2ccccc2[C@H](C(=O)Nc2ccc(F)c(C#N)c2)[C@H]1c1cn[nH]c1 (racemic)

t1/2 [3]: 72.6 min
SMILES: CC(C)CN1C(=O)c2ccccc2[C@H](C(=O)Nc2ccc(F)c(C#N)c2)[C@H]1c1ccc(C#N)s1 (racemic)

Drug metabolism [5]: Metabolite_Detected
SMILES: CC(C)CN1C(=O)c2ccccc2[C@H](C(=O)Nc2cccc(O)c2)[C@H]1c1cccs1 (relative stereo)

Drug metabolism [6]: Metabolite_Detected
SMILES: CC(C)CN1C(=O)c2ccccc2[C@H](C(=O)Nc2ccc(O)c(Cl)c2)[C@H]1c1cccs1 (relative stereo)

t1/2 [3]: > 240 min
SMILES: N#Cc1cc(NC(=O)[C@H]2c3ccccc3C(=O)N(CC(F)(F)F)[C@@H]2c2cn[nH]c2)ccc1F (relative stereo)

t1/2 [3]: 97.8 min
SMILES: N#Cc1cc(NC(=O)[C@H]2c3ccccc3C(=O)N(CC(F)(F)F)[C@@H]2c2cccnc2)ccc1F (relative stereo) [SJ-733]
